Assay results taken from patent US12595503B2, “Reference dataset-based, spectrometric characterization of cell substrates using sub-libraries” (priority 2021, dated 2026).

System: E. coli
Assay: MALDI-TOF (MALDI Biotyper) growth-based resistance/susceptibility determination of the test cell substrate in CTX-containing Mueller-Hinton nutrient medium
Parameters: species or system Escherichia coli
Conditions: CTX 1 μg/mL; for logarithm of the similarity measure (log(score)), best match of second preparation: 4 h incubation
Excerpt: As proof of principle for the feasibility of the disclosed procedure, a cefotaxime-susceptible E. coli was selected as the test cell substrate and applied to the determination of a characteristic of the microorganism under investigation using a MALDI Biotyper® system. For this purpose, the resistance/susceptibility of the test cell substrate to a growth-influencing substance, in this example the antibiotic cefotaxime (CTX), was investigated using a prior art method and the method disclosed herein.
The test cell substrate was incubated in nutrient medium, Mueller-Hinton nutrient medium (first preparation—FIG. 2), and the same nutrient medium containing CTX at a concentration of 1 μg/mL (second preparation—FIGS. 3 and 4). The first preparation served as a growth control. The second preparation was used to determine the resistance/susceptibility of the test cell substrate to CTX.
To create the preparations, a large volume (stock suspension) of a cell suspension, here about 12 mL, otherwise regularly 10 to 50 mL, of the test cell substrate was prepared in Mueller-Hinton nutrient medium, a liquid nutrient medium. The concentration of the test cell substrate in the stock suspension was determined densitometrically in order to use an appropriate and equal amount of the test cell substrate for the first and second preparations. A small volume was taken from this stock suspension for the first preparation and transferred to a well of a microtiter plate. Since the first preparation was designed as a growth control, no antibiotic was present in the well. Simultaneously, for a second preparation, the same volume of stock suspension was removed and transferred to another well of the microtiter plate, thereby dissolving the antibiotic CTX, which was present in dried form in the well of the second preparation, for a final concentration of 1 μg/mL. The microtiter plate was then agitated to ensure complete dissolution and homogeneous distribution of the antibiotic in the cavity of the second preparation. Further preparations in the form of a concentration-dilution series for determining of a minimum inhibitory concentration (MIC) of the antibiotic CTX is easy to generate by selectively dissolving the dried CTX in additional wells of the microtiter plate. For example, a CTX concentration of 0.5 μg/mL can be set in the Mueller-Hinton nutrient medium in a third well for another preparation, and a CTX concentration of 2 μg/mL can be set in a fourth well for yet another preparation. Thus, the dilution series can comprise the CTX concentrations 0.5, 1 and 2 μg/mL, while additional dilution steps, e.g., 0.25 or 4 μg/mL can be included. Such a dilution series can also be performed in dilution steps of different sizes of the CTX concentration. […]

## CO/N=C(\C(=O)N[C@@H]1C(=O)N2C(C(=O)O)=C(COC(C)=O)CS[C@H]12)c1csc(N)n1 [CTX, cefotaxime]
Compared with entire reference library (prior art method), best match Citrobacter farmeri, >=1.7 read as growth/resistance
  logarithm of the similarity measure (log(score)), best match of second preparation: 1.83
Compared with first sub-library (five best E. coli reference datasets), <1.7 read as no growth/susceptibility
  logarithm of the similarity measure (log(score)), best match of second preparation: 1.13
Compared with entire reference library (prior art method), patent calls this result false-positive
  property resistance or susceptibility to CTX: CTX-resistant
Compared with first sub-library (method of the invention)
  property resistance or susceptibility to CTX: CTX-susceptible
